Laboratory results reported in US12390437B2, “Itaconic acid derivatives and uses thereof intreating an inflammatory disease or a disease associated with an undesirable immune response” (Sitryx Therapeutics Limited, priority 2019, dated 2025).
Where a name gives a salt, the structure may show the parent alone. Read-outs that look alike come from different tables or passages of the source.

Assays:
[1] = test system: IL-1β cytokine output from THP-1s; test: THP-1 AlphaLISA IL-1β cytokine assay; assay type: cell-based, human; details: Homo sapiens, read-out: IL-1β (IC50)
Procedure, shortened: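 PMA-differentiated THP-1 cells (72 h) were pre-incubated 30 min with compound, then LPS-primed 24 h and pulsed with nigericin for 1 h at 37 °C. Supernatant cytokine was quantified by AlphaLISA; % inhibition was normalised to +/−LPS plate controls and IC50 taken from concentration-response curves.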

[2] = Mouse pharmacokinetic study, oral administration; assay type: in vivo; details: for concentration at 0.083 h / concentration at 0.25 h / concentration at 0.5 h / concentration at 1 h / concentration at 2 h / concentration at 4 h / concentration at 6 h / concentration at 8 h / concentration at 24 h: male, C57BL/6, mouse, plasma, po, 100 mg/kg, male C57BL/6 mice, oral gavage 100 mg/kg; for concentration at 0.083 h: read-out: Parent compound concentrations following oral administration, Time 0.083 h; for concentration at 0.25 h: read-out: Parent compound concentrations following oral administration, Time 0.25 h; for concentration at 0.5 h: read-out: Parent compound concentrations following oral administration, Time 0.5 h; for concentration at 1 h: read-out: Parent compound concentrations following oral administration, Time 1 h; for concentration at 2 h: read-out: Parent compound concentrations following oral administration, Time 2 h; for concentration at 4 h: read-out: Parent compound concentrations following oral administration, Time 4 h; for concentration at 6 h: read-out: Parent compound concentrations following oral administration, Time 6 h; for concentration at 8 h: read-out: Parent compound concentrations following oral administration, Time 8 h; for concentration at 24 h: read-out: Parent compound concentrations following oral administration, Time 24 h
Protocol: Pharmacokinetic studies were carried out in 6-8-week-old male C57BL/6 mice having free access to food and water. Intravenous dosing was conducted at 10 mg/kg (5 mL/kg; vehicle: 10% DMSO-90% (25% HP-13-CD in water)) via tail vein injection, with sampling at 3 min, 8 min, 15 min, 30 min, 1, 2, 4, 6 and 8 hours, i.e., 9 time points in total (N=3/time point), using semi-serial bleeding for plasma. Oral compound administration, via gavage, was carried out at 100 mg/kg (10 mL/kg; vehicle: 5% DMSO-95% (0.5% HPMC+0.1% Tween 80 in water)), with sampling at 5 min, 15 min, 30 min, 1, 2, 4, 6, 8 and 24 hours, i.e., 9 time points in total (N=3/time point), using semi-serial bleeding for plasma.
For both intravenous and oral routes, the mice were restrained manually at the designated time points, with ca. 110 μL of blood being taken into K2EDTA tubes via the facial vein. Blood samples were put on ice and centrifuged to obtain plasma samples from which the concentration at each time point was measured by LC-MS/MS.

[3] = Hepatocyte stability assay (mouse); assay type: in vitro ADME; details: cryopreserved hepatocytes, 10 μM compound, 0.5×10^6 cells/mL, 60 minutes, read-out: T½
From the text: (§1) Defrosted cryo-preserved hepatocytes (viability >70%) are used to determine the metabolic stability of a compound via calculation of intrinsic clearance (Clint; a measure of the removal of a compound from the liver in the absence of blood flow and cell binding). Clearance data are particularly important for in vitro work as they can be used in combination with in vivo data to predict the half-life and oral bioavailability of a drug.
(§2) The metabolic stability in hepatocytes assay involves a time-dependent reaction using both positive and negative controls. The cells must be pre-incubated at 37° C. then spiked with test compound (and positive control); samples taken at pre-determined time intervals are analysed to monitor the change in concentration of the initial drug compound over 60 minutes. A buffer incubation reaction (with no hepatocytes present) acts as a negative control and two cocktail solutions, containing compounds with known high and low clearance values (verapamil/7-hydroxycoumarin and propranolol/diltiazem), act as positive controls. • 1. The assay is run with a cell concentration of 0.5×10^6 cells/mL in Leibovitz buffer. • 2. All compounds and controls are run in duplicate. • 3. Compound concentration is 10 μM. • 4. All compounds and controls are incubated with both cells and buffer to show turnover is due to hepatic metabolism. • 5. All wells on the incubation plate will have 326.7 μL of either cells or buffer added. • 6. Prior to assay, cell and buffer-only incubation plates are preincubated for 10 mins at 37° C. • 7. The assay is initiated by adding compounds, 3.3 μL of 1 mM in 10% DMSO-90% Buffer; final DMSO concentration is 0.1%. • 8. Samples are taken at regular timepoints (0, 5, 10, 20, 40, 60 min) until 60 mins. • 9. Sample volume is 40 μL and it is added to 160 μL of crash solvent (acetonitrile with internal standard) and stored on ice. • 10. At the end of the assay, the crash plates are centrifuged at 3500 rpm for 20 mins at 4° C. • 11. 80 μL of clear supernatant is removed and mixed with 80 μL of deionised water before being analysed by LC-MS/MS.
(§3) Raw LC-MS/MS data are exported to, and analysed in, Microsoft Excel for determination of intrinsic clearance. The percentage remaining of a compound is monitored using the peak area of the initial concentration as 100%. Intrinsic clearance and half-life values are calculated using a graph of the natural log of percentage remaining versus the time of reaction in minutes. Half-life (min) and intrinsic clearance (Clint in μL min^−1 10^−6 cells) values are calculated using the gradient of the graph (the elimination rate constant, k) and Equations 1 and 2.

hepatocytes = test: Hepatocyte stability assay (mouse); assay type: in vitro ADME; details: 10 μM compound, 0.5×10^6 cells/mL, 60 minutes
From the text: as §1, §2, §3

[4] = THP-1, PMA-differentiated THP-1 cells, LPS 24 hr then Nigericin 1 hour
[5] = THP-1, Table 10, assay of Biological Example 1 (THP-1)

Compound	IC50 [1, 4]	concentration at 0.083 h [2]	concentration at 0.25 h [2]	concentration at 0.5 h [2]	concentration at 1 h [2]	concentration at 2 h [2]	concentration at 4 h [2]	concentration at 6 h [2]	concentration at 8 h [2]	concentration at 24 h [2]	half-life at 10 μM [3]	CIint (μL min^−1 10^−6 cells) (hepatocytes)	IC50 [1, 5]	Quantifiability in plasma following oral administration ([2]; mouse, 100 mg/kg oral)
C=C(CC(=O)OC1CCCCCCC1)C(=O)OCCC(=O)O [Example 82, 3-((4-(cyclooctyloxy)-2-methylene-4-oxobutanoyl)oxy)propanoic acid]	25.7 µM	27500 ng/mL	18000 ng/mL	6450 ng/mL	3400 ng/mL	1040 ng/mL	568 ng/mL	112 ng/mL	86 ng/mL	< 0.8 ng/mL	27 min	52 μL min^−1 10^−6 cells	–	–
C=C(CC(=O)O[C@@H](C)CCCCCC)C(=O)OCCC(=O)O [Example 84, (S)-3-((2-methylene-4-(octan-2-yloxy)-4-oxobutanoyl)oxy)propanoic acid]	14.3 µM	–	9090 ng/mL	5120 ng/mL	3310 ng/mL	1000 ng/mL	368 ng/mL	–	217 ng/mL	< 31 ng/mL	6 min	220 μL min^−1 10^−6 cells	–	–
C=C(CC(=O)OCCCOc1ccccc1)C(=O)OCCC(=O)O [Example 86, 3-((2-methylene-4-oxo-4-(3-phenoxypropoxy)butanoyl)oxy)propanoic acid]	100 µM	–	41 ng/mL	943 ng/mL	686 ng/mL	149 ng/mL	19 ng/mL	–	< 3 ng/mL	< 3 ng/mL	–	–	–	–
C=C(CC(=O)OC1CCCCC1)C(=O)OCCC(=O)O [Example 87, 3-((4-(cyclohexyloxy)-2-methylene-4-oxobutanoyl)oxy)propanoic acid]	28.1 µM	–	35300 ng/mL	15900 ng/mL	8520 ng/mL	1460 ng/mL	198 ng/mL	–	31 ng/mL	< 14 ng/mL	65 min	21 μL min^−1 10^−6 cells	–	–
C=C(CC(=O)O[C@H](C)CCCCCC)C(=O)OCCC(=O)O [Example 88, (R)-3-((2-methylene-4-(octan-2-yloxy)-4-oxobutanoyl)oxy)propanoic acid]	25.2 µM	53900 ng/mL	43600 ng/mL	33800 ng/mL	12700 ng/mL	10500 ng/mL	4100 ng/mL	1950 ng/mL	72 ng/mL	5.5 ng/mL	7 min	297 μL min^−1 10^−6 cells	–	–
C=C(CC(=O)O[C@H](CC)CCCCC)C(=O)OCC(=O)O [Example 178, (R)-2-(2-methylene-4-(octan-3-yloxy)-4-oxobutanoyloxy)acetic acid]	24.6 µM	67100 ng/mL	27100 ng/mL	27900 ng/mL	11000 ng/mL	3660 ng/mL	1460 ng/mL	2240 ng/mL	639 ng/mL	< 4 ng/mL	–	–	–	–
COC(=O)/C=C/C(=O)OC [dimethyl fumarate, reference compound]	14.4 µM	–	–	–	–	–	–	–	–	–	–	–	14.4 µM	–
C=C(CC(=O)OC)C(=O)OC [dimethyl itaconate, reference compound]	> 100 µM	< 24 ng/mL	< 24 ng/mL	< 24 ng/mL	< 24 ng/mL	< 24 ng/mL	< 24 ng/mL	< 24 ng/mL	< 24 ng/mL	< 24 ng/mL	–	–	> 100 µM	below the limit of quantification at all timepoints
